We go through 21 molecules from patent US20260272960A1, “[…] COMPOUNDS, PREPARATION METHOD AND USE THEREOF” (HC SYNTHETIC PHARMACEUTICAL CO., LTD., priority 2022, published 2026).

What is called solubility is the dissolved amount per volume that the medium holds.

Converted amounts (≈) assume the structure as drawn. Read-outs that look alike come from different tables or passages of the source.

Series [1] can be described thus: Solubility test in water, methanol and isopropanol. Format: physicochemical.
Experimental: The solubility in water, methanol, and isopropanol of the compounds of the present disclosure and the comparative compounds were measured separately.
A short description of series [2]: Accelerated stability test. The conditions noted are these: 40° C.±2° C., relative humidity 75%+5%. Format: physicochemical. The protocol:
The compound of the present disclosure was placed at a temperature of 40° C.±2° C. and a relative humidity of 75%+5% for 6 months, and samples were taken to determine for the descriptions, related substances, and contents.

For series [3], the system named is histamine-induced asthma in guinea pigs. The series is described as follows: Antiasthmatic effect on histamine-induced asthma in guinea pigs (latency period). Format: in vivo, guinea pig. The settings on record: 1 mg/kg oral gavage, sixty minutes after administration; no asthma within 8 minutes counted as 8 minutes; X ± s, n = 5. As for the experimental part:
The guinea pigs were placed in a polymethyl methacrylate bell jar and a histamine hydrochloride solution was sprayed ultrasonically (0.8 mg/mL) for 40 seconds. The time point at which the guinea pigs developed asthma was recorded. The time of convulsion and fall was taken as the latency period. Guinea pigs with a latency period exceeding 180 seconds were not selected. […] The guinea pigs were administered by oral gavage at a dose of 2 mL/kg·bw. Sixty minutes after the administration, the guinea pigs were placed in bell jars, and histamine hydrochloride solution was sprayed under the same conditions as in the previous selection. The latency period for the onset of asthma was recorded. […] The results were processed statistically.

Series [4] relates to isolated ileal smooth muscle of guinea pigs. Nature of the series: Effect on muscle tone of isolated ileal smooth muscle of guinea pigs (no histamine added). Also noted: species or system guinea pig. The settings on record: 5 minutes after adding the drug, X ± s, n = 8. As for the experimental part: The guinea pig was knocked unconscious with a wooden stick, and the abdomen was immediately dissected to separate the ileum about 15 cm in length. The contents of the intestinal segment were flushed with Tyrode's solution and placed in Tyrode's solution at a constant temperature of 37° C. for later use, and oxygen was supplied simultaneously. The experimental intestinal tract (1 cm in length) was cut and placed into 20 ml of Tyrode's solution at a constant temperature of 37° C. with a continuous oxygen supply. One end of the intestine was fixed on the ventilation hook and the other end was connected to the muscle tone transducer and led to the computer interface. The muscle tone value of the ileal smooth muscle was recorded with a BL system. The experiment was carried out after the intestinal segment contraction became stable. […] The operation was repeated 8 times. The antispasmodic percentage was calculated according to the following formula. [formula]

Where [5] appears, read: isopropanol, organic solvent or mixture, isopropanol, read-out: Solubility, Isopropanol.
[6] abbreviates: methanol, organic solvent or mixture, methanol, read-out: Solubility, Methanol.
Setting [7] is: water, read-out: Solubility, Water.

As for `OCCCCCN1CCC(=C2c3ccc(Cl)cc3CCc3cccnc32)CC1` [Hydroxypentyl desloratadine, hydroxypentyl desloratadine, reference compound], the solubility in series [1] (setting [5]) is 29 mg/mL (≈ 73.1 mM); in series [1] (setting [6]), 19 mg/mL (≈ 47.9 mM).

Take `OCCCN1CCC(=C2c3ccc(Cl)cc3CCc3cccnc32)CC1` [Hydroxypropyl desloratadine, hydroxypropyl desloratadine, reference compound]: the results for the solubility in series [1] (setting [5]) and in series [1] (setting [6]) were 26 mg/mL (≈ 70.5 mM) and 24 mg/mL (≈ 65.1 mM), respectively.

Regarding `O=C1Cc2ccccc2C(=C2CCN(CCCCOP(=O)([O-])[O-])CC2)c2ccsc21.[Na+].[Na+]` [Compound IV-4], the figures for the solubility in series [1] (setting [5]), in series [1] (setting [6]) and in series [1] (setting [7]) were 1 mg/mL, 35 mg/mL and 476 mg/mL, respectively. Besides, the Content in series [2] (Month 1) is 99.7%; in series [2] (Month 3), 99.6%.

With `O=C1Cc2ccccc2C(=C2CCN(COP(=O)(O)O)CC2)c2ccsc21` [Compound III-1], the solubility was found to be 24 mg/mL (≈ 59.2 mM) in series [1] (setting [5]) and 35 mg/mL (≈ 86.3 mM) in series [1] (setting [6]).

Regarding `O=C1Cc2ccccc2C(=C2CCN(CCCCCOP(=O)([O-])[O-])CC2)c2ccsc21.[Na+].[Na+]` [Compound IV-5], the solubility in series [1] (setting [5]) was determined as 1 mg/mL; in series [1] (setting [7]) it was 478 mg/mL.

Regarding `CN1CCC(=C2c3ccccc3CC(=O)c3sccc32)CC1` [Ketotifen, ketotifen], the solubility in series [1] (setting [5]) was 20 mg/mL (≈ 64.6 mM); in series [1] (setting [6]), 30 mg/mL (≈ 97 mM). The “Post-administration latency period” value in series [3] came out at 263.11 ± 54.90 s. Moreover, the “Smooth muscle tone (g) After administration” value in series [4] came out at 1.30 ± 0.30 g. In addition, the “Antispasmodic percentage (%)” value in series [4] (no histamine) worked out at 23.53 ± 10.10%.

For `O=C1Cc2ccccc2C(=C2CCN(CCCCOCOP(=O)([O-])[O-])CC2)c2ccsc21.[Na+].[Na+]` [Compound IV-8], the Content in series [2] (Month 1) was 99.7%; in series [2] (Month 2) it was 99.7%; in series [2] (Month 6), 99.6%.

For the molecule `O=C1Cc2ccccc2C(=C2CCN(CCCCCOCOP(=O)(O)O)CC2)c2ccsc21` [Compound III-9], the solubility in series [1] (setting [5]) was determined as 24 mg/mL (≈ 48.8 mM); in series [1] (setting [6]), 38 mg/mL (≈ 77.3 mM).

Consider `O=C1Cc2ccccc2C(=C2CCN(CCOP(=O)(O)O)CC2)c2ccsc21` [Compound III-2], for which the solubility in series [1] (isopropanol, organic solvent or mixture, read-out: Solubility, Isopropanol) was 24 mg/mL (≈ 57.2 mM).

Consider `O=C1Cc2ccccc2C(=C2CCN(CCCOP(=O)(O)O)CC2)c2ccsc21` [Compound IV-3], for which the solubility was 38 mg/mL (≈ 87.7 mM) in series [1] (setting [6]) and 404 mg/mL (≈ 932 mM) in series [1] (setting [7]).

On to `O=C1Cc2ccccc2C(=C2CCN(CCCOP(=O)(O)O)CC2)c2ccsc21` [Compound III-3], for which, in series [1] (setting [6]), the solubility amounted to 35 mg/mL (≈ 80.7 mM).

For the molecule `O=C1Cc2ccccc2C(=C2CCN(CCCOCOP(=O)(O)O)CC2)c2ccsc21` [Compound III-7], the solubility in series [1] (setting [5]) was found to be 24 mg/mL (≈ 51.8 mM); in series [1] (setting [6]), 38 mg/mL (≈ 82 mM).

For the molecule `O=C1Cc2ccccc2C(=C2CCN(CCOCOP(=O)(O)O)CC2)c2ccsc21` [Compound IV-6], the Content in series [2] (Month 3) was 99.6%.

For the molecule `OCCCCN1CCC(=C2c3ccc(Cl)cc3CCc3cccnc32)CC1` [Hydroxybutyl desloratadine, hydroxybutyl desloratadine, reference compound], the solubility is 28 mg/mL (≈ 73.1 mM) in series [1] (setting [5]) and 22 mg/mL (≈ 57.5 mM) in series [1] (setting [6]).

For the molecule `OCCCCCCN1CCC(=C2c3ccc(Cl)cc3CCc3cccnc32)CC1` [Hydroxyhexyl desloratadine, hydroxyhexyl desloratadine, reference compound], the values for the solubility in series [1] (setting [5]) and in series [1] (setting [6]) were 32 mg/mL (≈ 77.9 mM) and 15 mg/mL (≈ 36.5 mM), respectively.

With `Cc1cncc(CN2CCC(=C3c4ccccc4CC(=O)c4sccc43)CC2)c1` [Rupatifen, rupatifen, reference compound], the solubility in series [1] (setting [5]) is 20 mg/mL (≈ 49.9 mM); in series [1] (setting [6]), 30 mg/mL (≈ 74.9 mM).

Consider `O=C1Cc2ccccc2C(=C2CCN(COP(=O)([O-])[O-])CC2)c2ccsc21.[Na+].[Na+]` [Compound IV-1], for which the solubility in series [1] (setting [5]) was found to be 1 mg/mL; in series [1] (setting [6]) it was 35 mg/mL; in series [1] (setting [7]) it was 488 mg/mL. For the same molecule, the Content in series [2] (Month 1) worked out at 99.7%; in series [2] (Month 3), 99.6%.

For the molecule `O=C1Cc2ccccc2C(=C2CCN(CCCCOP(=O)(O)O)CC2)c2ccsc21` [Compound III-4], the solubility in series [1] (setting [5]) is 24 mg/mL (≈ 53.6 mM); in series [1] (setting [6]), 35 mg/mL (≈ 78.2 mM).

In the case of `O=C1Cc2ccccc2C(=C2CCN(CCOP(=O)([O-])[O-])CC2)c2ccsc21.[K+].[K+]` [Compound IV-2], the Content in series [2] (Month 1) turned out to be 99.7%; in series [2] (Month 2) it was 99.7%; in series [2] (Month 6), 99.6%.

For `OCCN1CCC(=C2c3ccc(Cl)cc3CCc3cccnc32)CC1` [Hydroxyethyl desloratadine, hydroxyethyl desloratadine, reference compound], the solubility amounted to 21 mg/mL (≈ 59.2 mM) in series [1] (setting [5]) and 27 mg/mL (≈ 76.1 mM) in series [1] (setting [6]).

Regarding `O=C1Cc2ccccc2C(=C2CCN(CCCCCOCOP(=O)([O-])[O-])CC2)c2ccsc21.[Na+].[Na+]` [Compound IV-9], the solubility in series [1] (setting [5]) turned out to be 2 mg/mL; in series [1] (setting [6]), 35 mg/mL; in series [1] (setting [7]) it was 473 mg/mL.
